Data on three molecules can be found in US20220211861A1, “DRUG CONJUGATES AND METHODS OF USING SAME” (The Board of Trustees of the Leland Staford Junior …, priority 2019, published 2022).

Assay [1] has as its system U87MG cells. Kind of assay: Direct binding of Alexa Fluor 488-labeled proteins to U87MG cells (flow cytometry). As to conditions: direct binding of AF488-labeled protein to U87MG cells, 3 h at 4° C. On the procedure:
(§1) The binding affinity of the constructs described in Example 1 were measured using U87MG glioblastoma cells. Drug-free protein affinities were measured directly using Alexa Fluor 488-conjugaed proteins and drug conjugates were measured via a competition binding assay displacing Alexa Fluor 488-labeled K. All constructs tested bound to U87MG cells with low-nanomolar affinity (FIG. 9A-B).
(§2) U87MG cells were detached using Enzyme-Free Cell Dissociation Buffer (Gibco). Next, 4×10^4 cells were incubated with varying concentrations (0.01-200 nM) of Alexa Fluor 488 labeled proteins in Integrin Binding Buffer (IBB; 25 mM Tris pH 7.4, 150 mM NaCl, 2 mM CaCl2), 1 mM MgCl2, 1 mM MnCl2, and 0.1% bovine serum albumin (BSA)) for 3 h at 4° C. to minimize internalization. Cells were pelleted and washed twice with 800 μL of PBSA (phosphate buffered saline containing 0.1% bovine serum albumin) and the fluorescence of remaining surface-bound protein was measured by flow cytometry using a Guava EasyCyte 8HT instrument (EMD Millipore). Resulting data were evaluated using FlowJo software (TreeStar Inc) and equilibrium dissociation constants (Kd) were determined using Prism software (GraphPad). Error bars represent the standard deviation of experiments performed in triplicate.
For orientation: Flow cytometry measures light scatter and fluorescence of single cells or particles in a stream.

The test system of assay [2] is U87MG cells. Kind of assay: Indirect (competition) binding assay displacing Alexa Fluor 488-labeled knottin. The note with it: competing off 1 nM AF488-2.5F on U87MG cells. The method, then: as §1
as §2, with “1 nM” for “varying concentrations (0.01-200 nM)”, “knottin as a competitor and varying concentrations (0.01-500 nM) of KDC, KFDC, or KADC” for “proteins”, “IBB” for “Integrin Binding Buffer (IBB; 25 mM Tris pH 7.4, 150 mM NaCl, 2 mM CaCl2), 1 mM MgCl2, 1 mM MnCl2, and 0.1% bovine serum albumin (BSA))”

Assay [3] concerns U87MG cells. Kind of assay: Measurement of cellular internalization of AF488-labeled proteins. The class given is cell-based. As to conditions: AF488-labeled protein, 37° C., 4 h, surface signal quenched. On the procedure:
The cleavage of the Val-Cit-PAB linker and the subsequent release and mechanism of action of MMAE are dependent upon intracellular delivery. Thus, it was important to validate that each construct internalized efficiently. Internalization was measured by incubating Alexa Fluor 488-conjugated proteins with cells at 37° C. After a 4 h incubation, surface-bound protein was quenched using an anti-AF488 antibody, that binds any exposed fluorophores.
U87MG cells were seeded in 24-well plates (Corning) at a density of 5×10^4 cells per well. After allowing cells to settle for >4 h, media was replaced with fresh media containing 200 nM of Alexa Fluor 488-labeled proteins and supplemented with 1 mM MnCl2. Cells were then incubated at 37° C. for 4 h. Cells were washed with 500 μL of PBS and detached using 20 μL of 0.05% trypsin/EDTA. After neutralizing trypsin and transferring each well into an Eppendorf tube, cells were washed with 800 μL of cold PBSA. Next, cells were pelleted and resuspended on ice in 50 μL of a 1:200 dilution of anti-Alexa Fluor 488 antibody (Invitrogen) to quench surface-bound protein. Cells were washed again with 800 μL of PBSA and the fluorescence of internalized protein was measured by flow cytometry as described above.

The test system of assay [4] is U87MG hip xenografts. Kind of assay: Therapeutic efficacy study, once weekly for four weeks, tumors implanted with Matrigel. It counts as in vivo, Nu/Nu mice. As to conditions: once weekly for 4 weeks. On the procedure: To further investigate each compound, several changes were made to the experimental design. Because of the KDC's rapid systemic clearance, a significant portion of the injected dose is likely lost and the ˜0.6 mg/kg dose was therefore increased substantially. Because dosages for chemotherapeutics are conventionally determined as mass of chemotherapeutic per patient body surface area, a more clinically relevant comparison of equal mass was selected over an equimolar comparison. Next, a once-per-week dosing regimen was selected to coincide with realistic clinical dosing considerations. Finally, tumors were implanted with Matrigel matrix to increase tumor growth and with only 2.5×10^6 cells per injection to decrease initial tumor necrosis. Mice bearing U87MG hip xenografts were equally distributed into the following treatment groups with intravenous injections given once weekly for 4 weeks: KDC, KFDC, KADC, unconjugated proteins, or a PBS control. Each drug conjugate was also evaluated at a low dose and a high dose.
For tumor cell implantation, female Nu/Nu mice (Charles River Laboratory) were anesthetized with 2.5% isoflurane by inhalation with a flow rate of 1 L/min. A volume of 200 μL of 50/50 PBS/Matrigel (Corning), containing 2.5×10^6 U87MG cells, was injected subcutaneously into the right flank. Tumors were allowed to grow for 7 days until reaching a size of approximately 35 mm^2. For therapeutic efficacy studies, mice were binned into experimental groups to ensure equivalent average tumor sizes and starting body weights across all groups.
Mice bearing U87MG flank xenografts, as described above, were injected intravenously with PBS, KDC, KFDC, KADC, or controls proteins. Treatments were administered once per week for four weeks. Tumors were measured three times per week using digital calipers and animal weights were recorded on each dosing day to monitor for potential weight loss as a measure of compound toxicity. Tumor area was calculated as the longest axis of the tumor multiplied by the perpendicular axis. Euthanasia criteria were defined as a tumor area greater than 150 mm^2 or a loss of 20% body weight.

For assay [5], the target named is integrin receptors on U87MG glioblastoma cells. Kind of assay: flow cytometry, direct binding of AF488-labelled protein to U87MG cells, 3 h at 4 C.

Where no end group is shown, it is not given here.

With “KFc: EETI 2.5F genetically fused to a human IgG1 Fc domain (GCPRPRGDNPPLTCSQDSDCLAGCVCGPNGFCG; ends and bridges not checked; also: fused to human IgG1 Fc domain (dimerising))”, binding in assay [1] was put at a Kd of 2.5 nM. In addition, in assay [2], the Ki (in general, a measure of affinity in units of concentration, obtained from inhibition or displacement) was determined as 1.2 nM. Also, the internalization result in assay [3] was “from least to greatest, K, KFc, then KAb”. The “tumor growth with unconjugated protein” value in assay [4] is “indistinguishable from PBS control mice”.

Consider “knottin-Fc fusion (KFc): EETI 2.5F genetically fused to a human IgG1 Fc domain, Alexa Fluor 488-labeled”, for which the Kd – broadly, a measure of binding affinity in units of concentration – in assay [5] stood at 2.5 nM.

B1: knottin-Ab fusion (KAb): EETI 2.5F genetically fused to the N-terminus of a full-length human IgG1 antibody against an irrelevant target (anti-FITC or … (peptide, part only; not given: carrier IgG1 antibody chains, part only)
chain, part: GCPRPRGDNPPLTCSQDSDCLAGCVCGPNGFCG
modifications: cysteine pairing not given here; also: genetic fusion to N-terminus of full-length human IgG1 antibody, Alexa Fluor 488 label, site not given here
With B1, the Kd in assay [5] came to 2.3 nM.
